Data from patent US8012943B2, “Antibacterial agents” (Optimer Pharmaceuticals, Inc., priority 2003, dated 2011).
In brackets after ≈: the same amount, converted by molar mass. Read-outs that look alike come from different tables or passages of the source.

Tests used:
Experiment in all cases: MIC, NCCLS broth microdilution
[1] = tested on: E. Coli ATCC 25922; type: cell-based; details: Escherichia coli, ATCC25922, Table 1
Procedure: (§1) Antibacterial activity of the novel Formula 1 and Formula 2 compounds and their pharmaceutically acceptable addition salts with organic and inorganic acids was determined against a series of microorganisms from the American Type Culture Collection (ATCC) and clinical Streptococcus sp isolates. The ATCC strains included: Staphylococcus aureus, Enterococcus faecium, Klebsiella pneumoniae, Escherichia coli, Salmonella typhimurium, Streptococcus pneumoniae, Streptococcus pyogenes, and Haemophilus influenzae. The clinical strains included macrolide resistant Streptococcus sp. with either Erm or MefA resistance mechanisms. The clinical isolates were identified using the API biochemical identification system (BioMerieux).
(§2) Antimicrobial susceptibility testing was performed according to recommendations by the National Committee for Clinical Laboratory Standards (NCCLS M100-S12, M7-A5). Briefly, two fold dilutions of compounds were made in microtiter plates. Each well of the microtiter plate was inoculated with test microorganisms at a final density 5×10^5 colony forming units (cfu)/mL. The microtiter plates were incubated at 35° C. under aerobic conditions, except for H. influenzae and S. pyogenes which were incubated at 5% CO2. The minimal inhibitory concentration (MIC) was defined as the lowest concentration of compound that inhibited growth. The results of represented examples of this invention on standard test microorganisms and clinical isolates in comparison with azithromycin and telithromycin are shown in Table 1 and Table 2.

[2] = tested on: E. faecium ATCC 19434; type: cell-based; details: Enterococcus faecium, ATCC19434, Table 1
Procedure: as §1, §2

[3] = tested on: K. Pneumonia 13883; type: cell-based; details: Klebsiella pneumoniae, Table 1
Procedure: as §1, §2

[4] = tested on: S. aureus ATCC 29213 (MSSA) MLS-S; type: cell-based; details: Staphylococcus aureus, Table 1
Procedure: as §1, §2

[5] = tested on: S. aureus MRSA 33591; type: cell-based; details: Staphylococcus aureus, Table 1
Procedure: as §1, §2

[6] = tested on: S. pyogenes ATCC 19615; type: cell-based; details: Streptococcus pyogenes, ATCC19615, 5% CO2, Table 1
Procedure: as §1, §2

[7] = tested on: S. Typhimurium ATCC 14028; type: cell-based; details: Salmonella enterica, Table 1
Procedure: as §1
as §2, with “growth.” for “growth. The results of represented examples of this invention on standard test microorganisms and clinical isolates in comparison with azithromycin and telithromycin are shown in Table 1 and Table 2.”

[8] = tested on: S. pneumoniae 163(MefA); type: cell-based, Streptococcus pneumoniae
Procedure: as §1, §2

[9] = tested on: S. pneumoniae 303(ErmB); type: cell-based, Streptococcus pneumoniae
Procedure: as §1, §2

[10] = tested on: S. pneumoniae ATCC 49619; type: cell-based, Streptococcus pneumoniae
Procedure: as §1, §2

[11] = tested on: H. influenzae ATCC 49247; type: cell-based, Haemophilus influenzae; details: 5% CO2
Procedure: as §1, §2

[12] = tested on: S. pneumoniae 5032; type: cell-based; details: Streptococcus pneumoniae, Table 2
Procedure: as §1, §2

[13] = tested on: S. pyogenes 1721; type: cell-based; details: Streptococcus pyogenes, Table 2
Procedure: as §1, §2

[14] = tested on: S. pyogenes 1850; type: cell-based; details: Streptococcus pyogenes, Table 2
Procedure: as §1, §2

[15] = tested on: S. pyogenes 3029; type: cell-based; details: Streptococcus pyogenes, Table 2
Procedure: as §1, §2

[16] = tested on: S. pyogenes 3262; type: cell-based; details: Streptococcus pyogenes, Table 2
Procedure: as §1, §2

[17] = tested on: S. pneumoniae 3773 (Erm B); type: cell-based, Streptococcus pneumoniae
Procedure: as §1, §2

[18] = Streptococcus pneumoniae, S. pneumoniae 163(MefA), Table 1, read-out: MIC
[19] = Streptococcus pneumoniae, S. pneumoniae 303(ErmB), Table 1, read-out: MIC
[20] = Streptococcus pneumoniae, ATCC49619, Table 1, read-out: MIC
[21] = Haemophilus influenzae, ATCC49247, H. influenzae ATCC 49247, Table 1, read-out: MIC
[22] = Streptococcus pneumoniae, Table 2, read-out: MIC
[23] = Haemophilus influenzae, ATCC49247, H. influenzae ATCC 49247, Table 2, read-out: MIC
[24] = Streptococcus pneumoniae, S. pneumoniae 163 (Mef A), Table 2, read-out: MIC
[25] = Streptococcus pneumoniae, S. pneumoniae ErmB 303, Table 2, read-out: MIC
[26] = Streptococcus pneumoniae, ATCC49619, Table 2, read-out: MIC

Row | Compound | MIC [1] [µg/mL] | MIC [2] [µg/mL] | MIC [3] [µg/mL] | MIC [4] [µg/mL] | MIC [5] [µg/mL] | MIC [6] [µg/mL] | MIC [7] [µg/mL] | MIC [8, 18] [µg/mL] | MIC [9, 19] [µg/mL] | MIC [10, 20] [µg/mL] | MIC [11, 21] [µg/mL] | MIC [12] [µg/mL] | MIC [13] [µg/mL] | MIC [14] [µg/mL] | MIC [15] [µg/mL] | MIC [16] [µg/mL] | MIC [17, 22] [µg/mL] | MIC [11, 23] [µg/mL] | MIC [8, 24] [µg/mL] | MIC [9, 25] [µg/mL] | further results
1 | CC[C@H]1OC(=O)[C@H](C)[C@@H](O[C@H]2C[C@@](C)(OC)[C@@H](O)[C@H](C)O2)[C@H](C)[C@@H](O[C@@H]2O[C@H](C)C[C@H](N(C)C)[C@H]2O)[C@](C)(O)C[C@@H](C)CN(C)[C@H](C)[C@@H](O)[C@]1(C)O [Azithromycin, reference compound] | 8 (≈ 10.7 µM) | 4 (≈ 5.34 µM) | 8 (≈ 10.7 µM) | 1 (≈ 1.34 µM) | > 64 | 1 (≈ 1.34 µM) | 4 (≈ 5.34 µM) | ≤ 0.125 | 0.5 (≈ 0.668 µM) | ≤ 0.125 | 2 (≈ 2.67 µM) |  |  |  |  |  |  |  |  |  | 
2 | CC[C@H]1OC(=O)[C@H](C)C(=O)[C@H](C)[C@@H](O[C@@H]2O[C@H](C)C[C@H](N(C)C)[C@H]2O)[C@](C)(OC)C[C@@H](C)C(=O)[C@H](C)[C@H]2N(CCCCn3cnc(-c4cccnc4)c3)C(=O)O[C@]12C [Telithromycin, reference compound] | 16 (≈ 19.7 µM) | ≤ 0.125 | 16 (≈ 19.7 µM) | ≤ 0.125 | > 64 | ≤ 0.125 | 4 (≈ 4.93 µM) | ≤ 0.125 | ≤ 0.125 | ≤ 0.125 | 2 (≈ 2.46 µM) | 1 (≈ 1.23 µM) | 64 (≈ 78.8 µM) | 8 (≈ 9.85 µM) | 16 (≈ 19.7 µM) | 32 (≈ 39.4 µM) | 1 (≈ 1.23 µM) | 4 (≈ 4.93 µM) |  |  | MIC ([8]; S. pneumoniae 163 (Mef A), Table 2): <=0.125 mcg/mL; MIC ([9]; S. pneumoniae ErmB 303, Table 2): <=0.125 mcg/mL; MIC ([10]; Table 2): <=0.125 mcg/mL
3 | CC[C@H]1OC(=O)[C@@](C)(F)C(=O)[C@H](C)[C@@H](O[C@@H]2O[C@H](C)C[C@H](N(C)C)[C@H]2O)[C@](C)(OC)C[C@@H](C)C(=O)[C@H](C)[C@H]2N(CCCCn3cc(-c4cccc(N)c4)nn3)C(=O)O[C@]12C [OP-1068, 11-N-[4-[4-(3-aminophenyl)-[1,2,3]triazol-1-yl]-butyl]-5-desosaminyl-3-oxo-2-fluoro-erythronolide A, 11,12-cyclic carbamate] |  |  |  |  |  |  |  |  |  |  |  | 0.5 (≈ 0.592 µM) | 0.5 (≈ 0.592 µM) | ≤ 0.125 | ≤ 0.125 | 0.5 (≈ 0.592 µM) | 0.5 (≈ 0.592 µM) | 2 (≈ 2.37 µM) | ≤ 0.125 | ≤ 0.125 | MIC ([17]; Table 2): 1 µg/mL (≈ 1.18 µM); MIC [10, 26]: ≤ 0.125 µg/mL; MIC ([11]; H. influenzae ATCC 49247, Table 2): 4 µg/mL (≈ 4.73 µM)
4 | CC[C@H]1OC(=O)[C@H](C)C(=O)[C@H](C)[C@@H](OC(=O)C2CN(C(=O)OC(C)(C)C)C(C)(C)O2)[C@@](C)(OC)C[C@@H](C)C(=O)[C@H](C)[C@H]2N(CCCCn3cnc(-c4cccnc4)c3)C(=O)O[C@]12C (stereo partly drawn) [OP-1086] | > 64 | 4 (≈ 4.53 µM) | > 64 | 4 (≈ 4.53 µM) | > 64 | 32 (≈ 36.3 µM) | > 64 | ≤ 0.125 | 0.25 (≈ 0.283 µM) |  | > 64 |  |  |  |  |  |  |  |  |  | 
5 | CC[C@H]1OC(=O)[C@H](C)C(=O)[C@H](C)[C@@H](OC2OC(C)C(O)C(N(C)C)C2O)[C@@](C)(OC)C[C@@H](C)C(=O)[C@H](C)[C@H]2N(CCCCn3cc(Cn4nnc5ccccc54)nn3)C(=O)O[C@]12C (stereo partly drawn) [OP-1071, 11-N-[4-(4-Benzotriazol-1-ylmethyl-[1,2,3]triazol-1-yl)-butyl]-6-O-methyl-5-mycaminosyl-3-oxo-erythronolide A, 11,12-carbamate] | > 64 | ≤ 0.125 | > 64 | 0.25 (≈ 0.283 µM) | > 64 | ≤ 0.125 | > 64 | 0.5 (≈ 0.566 µM) | > 64 | ≤ 0.125 | 2 (≈ 2.26 µM) |  |  |  |  |  |  |  |  |  | 
6 | CC[C@H]1OC(=O)[C@@](C)(F)C(=O)[C@H](C)[C@@H](OC2OC(COC(C)=O)CC(N(C)C)C2O)[C@@](C)(OC)C[C@@H](C)C(=O)[C@H](C)[C@H]2N(CCCCn3cc(-c4cccc(N)n4)nn3)C(=O)O[C@]12C (stereo partly drawn) [OP-1356, 11-N-{4-[4-(6-Amino-pyridin-2-yl)-[1,2,3]triazol-1-yl]-butyl}-5-(3-dimethylamine-4-deoxy-6-O-acetyl-glucopyranosyl)-3-oxo-2-fluoro-erythronolide A,-11,12-cyclic carbamate] |  |  |  |  |  |  |  |  |  |  |  | 1 (≈ 1.11 µM) | 4 (≈ 4.42 µM) | 0.25 (≈ 0.277 µM) | 1 (≈ 1.11 µM) | 4 (≈ 4.42 µM) | 0.5 (≈ 0.553 µM) | 1 (≈ 1.11 µM) | ≤ 0.125 | ≤ 0.125 | MIC [10, 26]: ≤ 0.125 µg/mL
7 | CC[C@H]1OC(=O)[C@H](C)C(=O)[C@H](C)[C@@H](OC2OC(C)CC(N(C)C)C2O)[C@@](C)(OC)C[C@@H](C)C(=O)[C@H](C)[C@H]2N(CCCCn3cc(Cn4nnc5ccccc54)nn3)C(=O)O[C@]12C (stereo partly drawn) [OP-1007, 11-N-[4-(4-Benzotriazol-1-ylmethyl-[1,2,3]triazol-1-yl)-butyl]-6-O-methyl-5-O-dasosaminyl-3-oxo-erythronolide A, 11,12-carbamate] | 64 (≈ 73.8 µM) | ≤ 0.125 | 32 (≈ 36.9 µM) | ≤ 0.125 | > 64 | ≤ 0.125 | 8 (≈ 9.23 µM) | ≤ 0.125 | > 64 | ≤ 0.125 | 0.5 (≈ 0.577 µM) |  |  |  |  |  |  |  |  |  | 
8 | CC[C@H]1OC(=O)[C@@](C)(F)C(=O)[C@H](C)[C@@H](OC2OC(C)CC(N(C)C)C2O)[C@@](C)(OC)C[C@@H](C)C(=O)[C@H](C)[C@H]2N(CCCCn3cc(-c4cccc(N)n4)nn3)C(=O)O[C@]12C (stereo partly drawn) [OP-1357, 11-N-{4-[4-(6-Amino-pyridin-2-yl)-[1,2,3]triazol-1-yl]-butyl}-5-desosaminyl-3-oxo-2-fluoro-erythronolide A,-11,12-cyclic carbamate] |  |  |  |  |  |  |  |  |  |  |  | 1 (≈ 1.18 µM) | 2 (≈ 2.36 µM) | 0.25 (≈ 0.296 µM) | 1 (≈ 1.18 µM) | 1 (≈ 1.18 µM) | 1 (≈ 1.18 µM) | 4 (≈ 4.73 µM) | ≤ 0.125 | ≤ 0.125 | MIC [10, 26]: ≤ 0.125 µg/mL
